In ChEMBL document CHEMBL1201862, “PubChem BioAssay data set” (2004):
Values belong to the molecule of their own block, whether it stands above or below them. The source made the active and inactive calls.

Legend:
[1] = target: Metabotropic glutamate receptor 7 (Homo sapiens, UniProt Q14831); assay: mGlu7 positive allosteric modulators, dose response, cell-based, calcium mobilization, Galpha15 (AID 743384); format: functional
[2] = Dose-response inhibition of insulin secretion in a rat insulinoma line at 5 mM glucose (AID 1117331); format: functional, cell-based; conditions: INS-1E
Caspase-8 = Caspase-8 (Homo sapiens, UniProt Q14790); assay: caspase-8 inhibition counter-screen, dose response, selectivity assay for caspase-6 inhibitor project, biochemical, Z-IETD-R110 fluorescence, cherry-picked samples (AID 743294)
Caspase-6 = target: T1, Caspase-6 (Homo sapiens, UniProt P55212); assay: human caspase-6 inhibitors, dose response, biochemical, VEID-R110 fluorescence, cherry-pick (AID 720632)
T1 sequence (P55212 whole entry): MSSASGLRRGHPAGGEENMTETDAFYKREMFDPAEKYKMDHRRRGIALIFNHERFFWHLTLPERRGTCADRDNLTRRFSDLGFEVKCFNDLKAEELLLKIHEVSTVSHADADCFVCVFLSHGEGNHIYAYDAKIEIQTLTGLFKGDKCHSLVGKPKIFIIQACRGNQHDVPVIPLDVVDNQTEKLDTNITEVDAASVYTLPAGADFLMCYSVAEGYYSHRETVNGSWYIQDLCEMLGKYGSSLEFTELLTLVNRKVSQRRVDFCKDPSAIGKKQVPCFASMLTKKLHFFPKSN

Caspase-7 = Caspase-7 (Homo sapiens, UniProt P55210); assay: human caspase-7 inhibitors, dose response, selectivity assay for caspase-6 inhibitor project, biochemical, DEVD-R110 fluorescence, cherry-pick (AID 743295)
[3] = target: T2, Apoptotic protease-activating factor 1 (Homo sapiens, UniProt O14727); format: functional
T2 sequence (O14727 whole entry): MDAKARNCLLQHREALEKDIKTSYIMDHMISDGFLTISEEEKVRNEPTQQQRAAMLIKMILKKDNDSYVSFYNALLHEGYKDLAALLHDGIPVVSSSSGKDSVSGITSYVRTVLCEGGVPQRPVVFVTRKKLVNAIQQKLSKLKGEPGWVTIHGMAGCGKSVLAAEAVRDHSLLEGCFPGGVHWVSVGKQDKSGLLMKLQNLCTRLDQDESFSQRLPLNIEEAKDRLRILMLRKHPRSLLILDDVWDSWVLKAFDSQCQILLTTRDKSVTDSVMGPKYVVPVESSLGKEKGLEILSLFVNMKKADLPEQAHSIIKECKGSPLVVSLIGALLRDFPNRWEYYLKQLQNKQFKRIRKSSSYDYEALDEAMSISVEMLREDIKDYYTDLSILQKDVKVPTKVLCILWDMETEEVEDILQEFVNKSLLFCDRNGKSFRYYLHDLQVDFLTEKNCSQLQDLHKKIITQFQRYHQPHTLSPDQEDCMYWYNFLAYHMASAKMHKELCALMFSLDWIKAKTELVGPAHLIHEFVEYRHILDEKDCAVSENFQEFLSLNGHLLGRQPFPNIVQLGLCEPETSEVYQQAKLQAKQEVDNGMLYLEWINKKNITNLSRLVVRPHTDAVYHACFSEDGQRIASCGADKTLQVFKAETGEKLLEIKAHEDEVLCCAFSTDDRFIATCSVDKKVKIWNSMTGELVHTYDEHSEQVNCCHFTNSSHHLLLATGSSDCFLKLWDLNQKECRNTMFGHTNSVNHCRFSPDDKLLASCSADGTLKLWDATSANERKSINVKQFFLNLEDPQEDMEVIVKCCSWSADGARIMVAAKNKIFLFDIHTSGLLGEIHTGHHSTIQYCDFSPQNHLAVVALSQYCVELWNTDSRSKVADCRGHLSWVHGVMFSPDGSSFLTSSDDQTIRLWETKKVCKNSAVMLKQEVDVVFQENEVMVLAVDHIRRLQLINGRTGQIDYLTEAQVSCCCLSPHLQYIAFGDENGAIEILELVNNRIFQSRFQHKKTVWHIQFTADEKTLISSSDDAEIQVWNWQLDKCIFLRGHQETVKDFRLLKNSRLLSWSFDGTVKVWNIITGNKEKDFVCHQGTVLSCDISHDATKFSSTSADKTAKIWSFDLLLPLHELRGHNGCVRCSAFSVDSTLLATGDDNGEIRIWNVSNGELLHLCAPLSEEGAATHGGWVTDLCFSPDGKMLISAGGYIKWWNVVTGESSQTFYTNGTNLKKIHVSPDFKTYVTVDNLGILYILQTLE

[4] = target: T3, Mannose-6-phosphate isomerase (Homo sapiens, UniProt P34949); assay: human PMI inhibitors, high substrate, primary screen, biochemical, fluorescence intensity, high mannose 6-phosphate (AID 1220)
T3 sequence (P34949 whole entry): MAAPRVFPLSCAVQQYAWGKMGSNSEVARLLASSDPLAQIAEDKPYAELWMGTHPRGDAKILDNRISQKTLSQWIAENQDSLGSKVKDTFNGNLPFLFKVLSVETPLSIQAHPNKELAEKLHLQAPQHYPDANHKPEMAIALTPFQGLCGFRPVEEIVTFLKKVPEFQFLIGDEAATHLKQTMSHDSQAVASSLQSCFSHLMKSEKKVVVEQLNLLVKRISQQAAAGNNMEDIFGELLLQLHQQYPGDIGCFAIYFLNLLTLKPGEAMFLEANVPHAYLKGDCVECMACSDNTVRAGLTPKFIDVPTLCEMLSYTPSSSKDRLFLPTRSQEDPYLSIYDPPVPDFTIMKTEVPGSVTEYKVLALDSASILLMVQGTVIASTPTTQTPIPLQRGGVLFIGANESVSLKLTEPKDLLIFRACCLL

Caspase-9 = Caspase-9 (Homo sapiens, UniProt P55211); assay: caspase-9 enzyme inhibition, dose response, selectivity assay for caspase-6 inhibitor project, biochemical, fluorescence, plate reader, cherry-picked samples (AID 743293)
[5] = target: Glutathione-S-transferase (Schistosoma japonicum, UniProt Q26513); assay: biotin-GST/anti-GST TR-FRET signal inhibitors, dose response, artefact control for Vif-APOBEC3G degradation inhibitor project, biochemical (AID 1117362); format: functional
[6] = target: RNA-editing ligase 1, mitochondrial (Trypanosoma brucei brucei, UniProt P86926); assay: TbREL1 ligase inhibitors, dose response, biochemical, fluorescence, Trypanosoma brucei (AID 1117295); format: functional
Genome polyprotein = Genome polyprotein (dengue virus type 2, UniProt P29990); assay: Dengue-2 NS5 methyltransferase inhibitors, primary screen, biochemical, confirmation dose response (AID 588689); format: functional
[7] = target: Tyrosyl-DNA phosphodiesterase 2 (Homo sapiens, UniProt O95551); assay: human TDP2 enzyme inhibitors, dose response, biochemical, epi absorbance, IC50 (AID 743297)
[8] = target: Induced myeloid leukemia cell differentiation protein Mcl-1 (Homo sapiens, UniProt Q07820); format: functional
Fibrinogen beta chain [9] = target: T4, Fibrinogen beta chain (Homo sapiens, UniProt P02675); assay: Fluorescence polarization-based biochemical high throughput dose response assay to identify inhibitors that disrupt the binding of a cyclic peptide (Tn7) to the fibrin proteolytic product D-Dimer and fragment E complex [DD(E )].
Fibrinogen beta chain [10] = target: T4, Fibrinogen beta chain; assay: Fluorescence polarization-based biochemical high throughput dose response assay to identify inhibitors that disrupt the binding of a cyclic peptide (Tn6) to the fibrin proteolytic product D-Dimer and fragment E complex [DD(E )].

T4 sequence (P02675 whole entry, the tested form may be a part): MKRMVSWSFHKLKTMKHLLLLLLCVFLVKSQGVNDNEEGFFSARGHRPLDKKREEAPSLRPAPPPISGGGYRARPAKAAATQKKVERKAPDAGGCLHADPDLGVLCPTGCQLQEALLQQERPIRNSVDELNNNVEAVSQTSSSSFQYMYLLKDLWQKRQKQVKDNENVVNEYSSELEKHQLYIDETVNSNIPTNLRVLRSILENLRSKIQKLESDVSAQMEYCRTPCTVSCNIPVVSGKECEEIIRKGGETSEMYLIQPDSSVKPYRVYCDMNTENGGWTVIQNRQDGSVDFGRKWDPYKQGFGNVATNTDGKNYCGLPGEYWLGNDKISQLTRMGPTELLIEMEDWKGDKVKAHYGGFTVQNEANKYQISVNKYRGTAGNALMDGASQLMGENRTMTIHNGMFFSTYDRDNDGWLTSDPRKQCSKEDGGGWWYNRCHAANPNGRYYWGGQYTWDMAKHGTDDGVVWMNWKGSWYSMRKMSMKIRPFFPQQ
Chain of Glutathione-S-transferase (Q26513 whole entry): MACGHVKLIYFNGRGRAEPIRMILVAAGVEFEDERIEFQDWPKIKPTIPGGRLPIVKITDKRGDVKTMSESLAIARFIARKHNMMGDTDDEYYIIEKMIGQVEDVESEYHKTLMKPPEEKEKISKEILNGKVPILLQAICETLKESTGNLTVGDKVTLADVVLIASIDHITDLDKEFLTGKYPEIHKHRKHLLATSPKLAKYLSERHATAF
Chain of RNA-editing ligase 1, mitochondrial (P86926 whole entry): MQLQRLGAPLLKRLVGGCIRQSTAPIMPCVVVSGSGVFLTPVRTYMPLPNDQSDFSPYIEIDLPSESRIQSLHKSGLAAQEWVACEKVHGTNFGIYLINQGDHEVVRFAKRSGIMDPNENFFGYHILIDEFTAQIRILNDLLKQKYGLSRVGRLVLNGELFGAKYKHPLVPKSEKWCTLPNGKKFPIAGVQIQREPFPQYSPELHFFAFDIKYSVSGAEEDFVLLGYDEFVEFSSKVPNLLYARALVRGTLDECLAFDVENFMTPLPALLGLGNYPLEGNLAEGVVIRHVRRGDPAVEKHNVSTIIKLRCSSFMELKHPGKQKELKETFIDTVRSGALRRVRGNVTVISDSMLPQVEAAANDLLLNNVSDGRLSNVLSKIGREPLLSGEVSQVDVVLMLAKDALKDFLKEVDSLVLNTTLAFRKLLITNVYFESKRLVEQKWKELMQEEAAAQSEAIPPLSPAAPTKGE
Chain of Genome polyprotein (P29990 2492-3391 limits assumed): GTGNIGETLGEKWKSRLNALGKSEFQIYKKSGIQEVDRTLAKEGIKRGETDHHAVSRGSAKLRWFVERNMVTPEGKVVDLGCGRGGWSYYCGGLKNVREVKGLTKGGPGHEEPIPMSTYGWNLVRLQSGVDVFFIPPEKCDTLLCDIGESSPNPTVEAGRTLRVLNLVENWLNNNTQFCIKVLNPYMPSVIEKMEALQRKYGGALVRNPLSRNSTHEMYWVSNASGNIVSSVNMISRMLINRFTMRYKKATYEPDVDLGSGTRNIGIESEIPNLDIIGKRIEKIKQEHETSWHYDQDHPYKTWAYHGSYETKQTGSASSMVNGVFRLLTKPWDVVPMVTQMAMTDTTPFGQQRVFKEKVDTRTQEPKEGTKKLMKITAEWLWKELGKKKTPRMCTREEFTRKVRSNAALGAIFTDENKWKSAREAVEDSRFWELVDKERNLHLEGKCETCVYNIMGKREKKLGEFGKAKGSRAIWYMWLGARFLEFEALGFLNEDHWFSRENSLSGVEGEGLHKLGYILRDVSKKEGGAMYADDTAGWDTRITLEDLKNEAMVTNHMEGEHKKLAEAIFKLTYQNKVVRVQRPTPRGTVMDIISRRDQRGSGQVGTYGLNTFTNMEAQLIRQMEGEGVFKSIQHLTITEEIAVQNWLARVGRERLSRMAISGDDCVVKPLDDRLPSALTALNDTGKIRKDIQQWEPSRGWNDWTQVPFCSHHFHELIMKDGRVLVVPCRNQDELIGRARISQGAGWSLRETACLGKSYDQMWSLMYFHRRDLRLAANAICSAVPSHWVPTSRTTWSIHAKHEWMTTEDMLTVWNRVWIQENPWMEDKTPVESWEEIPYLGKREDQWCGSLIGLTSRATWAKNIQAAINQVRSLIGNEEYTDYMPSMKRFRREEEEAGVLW
Chain of Caspase-8 (Q14790 217-374 limits assumed): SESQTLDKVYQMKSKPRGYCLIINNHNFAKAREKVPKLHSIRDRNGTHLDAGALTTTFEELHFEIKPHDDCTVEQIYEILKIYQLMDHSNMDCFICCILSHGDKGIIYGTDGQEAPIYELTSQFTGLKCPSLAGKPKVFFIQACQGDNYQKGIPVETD
Chain of Caspase-8 (Q14790 385-479 limits assumed): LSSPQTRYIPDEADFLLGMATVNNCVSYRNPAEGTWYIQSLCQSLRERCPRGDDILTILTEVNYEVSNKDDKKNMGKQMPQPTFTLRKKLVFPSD
Chain of Caspase-9 (P55211 1-315 limits assumed): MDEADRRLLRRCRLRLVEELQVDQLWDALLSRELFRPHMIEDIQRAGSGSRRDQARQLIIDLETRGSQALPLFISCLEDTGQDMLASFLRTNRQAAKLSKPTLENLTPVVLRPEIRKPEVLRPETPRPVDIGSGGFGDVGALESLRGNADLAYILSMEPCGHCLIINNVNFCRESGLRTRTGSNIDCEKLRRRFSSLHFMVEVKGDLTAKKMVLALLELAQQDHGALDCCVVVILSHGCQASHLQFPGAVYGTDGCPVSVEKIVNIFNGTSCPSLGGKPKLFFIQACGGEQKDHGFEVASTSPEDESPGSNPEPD
Chain of Caspase-9 (P55211 331-416 limits assumed): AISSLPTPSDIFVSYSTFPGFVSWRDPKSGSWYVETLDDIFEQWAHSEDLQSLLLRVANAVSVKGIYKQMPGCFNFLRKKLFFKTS
Chain of Caspase-7 (P55210 24-198 limits assumed): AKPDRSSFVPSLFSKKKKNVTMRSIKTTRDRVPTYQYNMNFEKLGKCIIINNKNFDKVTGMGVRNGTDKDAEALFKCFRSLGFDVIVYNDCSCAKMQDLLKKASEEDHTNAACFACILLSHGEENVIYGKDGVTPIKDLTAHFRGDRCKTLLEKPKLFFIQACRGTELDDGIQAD
Chain of Caspase-7 (P55210 207-303 limits assumed): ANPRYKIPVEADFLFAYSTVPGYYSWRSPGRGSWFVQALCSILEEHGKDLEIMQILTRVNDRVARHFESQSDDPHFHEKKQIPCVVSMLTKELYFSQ
Chain of Tyrosyl-DNA phosphodiesterase 2 (O95551 whole entry): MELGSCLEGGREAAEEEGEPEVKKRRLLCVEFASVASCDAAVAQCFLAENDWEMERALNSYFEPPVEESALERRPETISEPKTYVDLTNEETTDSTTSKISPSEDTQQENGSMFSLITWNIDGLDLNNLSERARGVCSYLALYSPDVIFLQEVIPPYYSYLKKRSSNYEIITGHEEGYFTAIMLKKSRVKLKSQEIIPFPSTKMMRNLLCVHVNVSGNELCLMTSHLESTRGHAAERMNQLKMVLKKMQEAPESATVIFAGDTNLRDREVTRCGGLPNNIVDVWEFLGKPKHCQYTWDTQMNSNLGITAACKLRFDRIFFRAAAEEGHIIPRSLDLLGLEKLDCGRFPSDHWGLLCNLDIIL
Chain of Metabotropic glutamate receptor 7 (Q14831 whole entry): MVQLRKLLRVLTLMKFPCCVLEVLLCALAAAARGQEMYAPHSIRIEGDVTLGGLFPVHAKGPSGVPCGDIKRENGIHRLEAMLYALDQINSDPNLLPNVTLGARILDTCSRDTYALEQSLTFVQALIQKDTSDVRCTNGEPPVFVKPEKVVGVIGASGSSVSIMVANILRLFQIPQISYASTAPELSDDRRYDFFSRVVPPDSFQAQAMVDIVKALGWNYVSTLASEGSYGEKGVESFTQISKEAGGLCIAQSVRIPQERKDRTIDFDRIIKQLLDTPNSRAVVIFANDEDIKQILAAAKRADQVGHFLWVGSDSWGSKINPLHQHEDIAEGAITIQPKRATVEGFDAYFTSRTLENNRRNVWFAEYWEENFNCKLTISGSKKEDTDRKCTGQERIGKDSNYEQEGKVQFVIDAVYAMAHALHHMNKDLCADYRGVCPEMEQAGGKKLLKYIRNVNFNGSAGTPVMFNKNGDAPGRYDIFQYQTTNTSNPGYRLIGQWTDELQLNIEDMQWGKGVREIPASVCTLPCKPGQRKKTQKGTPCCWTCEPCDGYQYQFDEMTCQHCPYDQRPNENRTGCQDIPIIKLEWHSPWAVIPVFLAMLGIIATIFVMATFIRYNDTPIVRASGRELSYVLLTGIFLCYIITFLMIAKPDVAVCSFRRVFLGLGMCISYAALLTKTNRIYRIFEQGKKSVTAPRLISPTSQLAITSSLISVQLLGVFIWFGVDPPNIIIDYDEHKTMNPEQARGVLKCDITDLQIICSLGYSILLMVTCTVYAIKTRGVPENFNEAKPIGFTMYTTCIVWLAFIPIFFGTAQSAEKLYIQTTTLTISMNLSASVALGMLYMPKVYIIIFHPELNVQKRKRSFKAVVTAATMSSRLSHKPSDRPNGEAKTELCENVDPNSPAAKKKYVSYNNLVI
Chain of Induced myeloid leukemia cell differentiation protein Mcl-1 (Q07820 whole entry, the tested form may be a part): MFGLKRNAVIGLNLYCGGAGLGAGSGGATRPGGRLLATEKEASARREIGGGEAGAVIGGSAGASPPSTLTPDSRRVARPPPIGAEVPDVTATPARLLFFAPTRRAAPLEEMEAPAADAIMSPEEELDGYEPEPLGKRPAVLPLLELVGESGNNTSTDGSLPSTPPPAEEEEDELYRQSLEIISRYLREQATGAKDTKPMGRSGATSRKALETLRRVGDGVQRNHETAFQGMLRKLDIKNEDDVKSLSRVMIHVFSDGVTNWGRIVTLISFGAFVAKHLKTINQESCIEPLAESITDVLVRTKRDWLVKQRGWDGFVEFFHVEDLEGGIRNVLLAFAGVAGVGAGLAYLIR

- EC50 [1]: 10 µM (active)
Structure (SMILES): CC(=O)Nc1ccc(SCC(=O)c2cc(C)n(-c3ccc(S(N)(=O)=O)cc3)c2C)cc1

Structure (SMILES): Nc1cc(N2CCCCC2)nc(N)[n+]1[O-] [MINOXIDIL]
- IC50 [2]: > 33.3 µM (inactive)

- AC50 (Caspase-8): > 70 µM (inactive)
- AC50 (Caspase-6): 4.1 µM (active)
- AC50 (Caspase-7): 25.5 µM (active)
- IC50 [3]: 15.8 µM (active)
- IC50 [4]: > 50 µM (not active)
- AC50 (Caspase-9): 53.6 µM (active)
Structure (SMILES): CCOc1c(O)ccc(/C=C2\SC(=S)NC2=O)c1[N+](=O)[O-]

- AC50 (Caspase-6): 13.1 µM (active)
- IC50 [5]: > 100 µM (active)
- IC50 [6]: 28.4 µM (inactive)
- IC50 (Genome polyprotein): 86.2 µM (active)
- IC50 [7]: > 128 µM (inactive)
- IC50 [8]: 3.45 µM (not active)
Structure (SMILES): O=C(NCCCO)c1ccc2nc(-c3ccco3)c(-c3ccco3)nc2c1

- IC50 (Fibrinogen beta chain [9]): > 83.3 µM (inactive)
- IC50 (Fibrinogen beta chain [10]): > 83.3 µM (inactive)
Structure (SMILES): O=C(COC(=O)c1cc(-c2cccc3ccccc23)nc2ccccc12)NC1CCS(=O)(=O)C1 (stereo unspecified)
